Experimental data as given in patent US20250179059A1 (The Regents of the University of California, priority 2021, published 2025).

Key:
[1] = molecular target: T1, human BRD4 bromodomain II (Homo sapiens, UniProt O60885); test: Bromodomain binding assay (AlphaScreen), BRD4 BDII; details: BRD4 BDII AlphaScreen assay; read-out: BRD4 BD2 IC50
T1 construct: human BRD4 bromodomain II [based on Genbank NM_058243, residues 349-460]; host or cells: E. coli
How it was run: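 First, His6-tagged BRD4 bromodomain (BDI residues 44-170 or BDII residues 349-460) is incubated with compound for 30 min at room temperature. Next the biotinylated H4 peptide is added for 30 min, then donor and acceptor beads, with 60 min in the dark before AlphaScreen reading and IC50 fitting.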

[2] = system: human SKM-1 acute myeloid leukemia cells; test: SKM-1 antiproliferation cell-based assay (ATPlite); details: Homo sapiens, SKM-1, SKM-1 antiproliferation assay
How it was run: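 Log-phase cells in RPMI 1640/15% FBS were seeded at 34722 cells/mL and exposed for 4 days to nine-concentration DMSO serial dilutions in triplicate. Viability was read as ATP luminescence (ATPlite 1step), and IC50 values came from variable-slope non-linear regression.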

IC50 [1] | GI50 [2] | Compound
1 to 10 nM | 0.3 to 30 nM | Cc1cc(-c2ccc(-n3ccn(C)c3=O)c(Cl)c2)c(O)c(-c2cc(Cl)cc(N3CCN(C(C)(C)C)CC3)c2)n1 [Example 999, 1-(4-(2-(3-(4-(tert-butyl)piperazin-1-yl)-5-chlorophenyl)-3-hydroxy-6-methylpyridin-4-yl)-2-chlorophenyl)-3-methyl-1H-imidazol-2(3H)-one]
1 to 10 nM | 0.3 to 30 nM | Cc1cc(-c2ccc(-n3ccn(C)c3=O)c(Cl)c2)c(O)c(-c2ccc(F)c(N3CCN(C(C)(C)C)CC3)c2)n1 [Example 1000, 1-(4-(2-(3-(4-(tert-butyl)piperazin-1-yl)-4-fluorophenyl)-3-hydroxy-6-methylpyridin-4-yl)-2-chlorophenyl)-3-methyl-1H-imidazol-2(3H)-one]
1 to 10 nM | 0.3 to 30 nM | Cc1cc(-c2ccc(-n3ccn(C)c3=O)c(F)c2)c(O)c(-c2cnc(C)c(N3CCN(C(C)(C)C)CC3)c2)n1 [Example 1001, 1-(4-(5′-(4-(tert-butyl)piperazin-1-yl)-3-hydroxy-6,6′-dimethyl-[2,3′-bipyridin]-4-yl)-2-fluorophenyl)-3-methyl-1H-imidazol-2(3H)-one]
1 to 10 nM | 0.3 to 30 nM | Cc1cc(-c2ccc(-n3ccn(C)c3=O)c(Cl)c2)c(O)c(-c2cc(N3CCN(C(C)(C)C)CC3)n3ccnc3c2)n1 [Example 1002, 1-(4-(2-(5-(4-(tert-butyl)piperazin-1-yl)imidazo[1,2-a]pyridin-7-yl)-3-hydroxy-6-methylpyridin-4-yl)-2-chlorophenyl)-3-methyl-1H-imidazol-2(3H)-one]
1 to 10 nM | 0.3 to 30 nM | Cc1cc(-c2ccc(-n3ccn(C)c3=O)c(F)c2)c(O)c(-c2cccc(N3CCN(C(C)(C)C)CC3)c2)n1 [Example 1003, 1-(4-(2-(3-(4-(tert-butyl)piperazin-1-yl)phenyl)-3-hydroxy-6-methylpyridin-4-yl)-2-fluorophenyl)-3-methyl-1H-imidazol-2(3H)-one]
1 to 10 nM | 0.3 to 30 nM | Cc1cc(-c2ccc(-n3ccn(C)c3=O)c(Cl)c2)c(O)c(-c2cncc(N3CCN(C(C)(C)C)CC3)c2)n1 [Example 1004, 1-(4-(5′-(4-(tert-butyl)piperazin-1-yl)-3-hydroxy-6-methyl-[2,3′-bipyridin]-4-yl)-2-chlorophenyl)-3-methyl-1H-imidazol-2(3H)-one]
1 to 10 nM | 0.3 to 30 nM | COc1ncc(-c2nccc(-c3ccc(-n4ccn(C)c4=O)c(Cl)c3)c2O)cc1N1CCN(C(C)(C)C)CC1 [Example 1005, 1-(4-(5′-(4-(tert-butyl)piperazin-1-yl)-3-hydroxy-6′-methoxy-[2,3′-bipyridin]-4-yl)-2-chlorophenyl)-3-methyl-1H-imidazol-2(3H)-one]
1 to 10 nM | 0.3 to 30 nM | CC(=O)Nc1ccc(-c2cc(C)nc(-c3cccc(N4CCN(C(C)(C)C)CC4)c3)c2O)cc1Cl [Example 1007, N-(4-(2-(3-(4-(tert-butyl)piperazin-1-yl)phenyl)-3-hydroxy-6-methylpyridin-4-yl)-2-chlorophenyl)acetamide]
1 to 10 nM | 0.3 to 30 nM | [2H]C([2H])([2H])C(=O)Nc1ccc(-c2cc(C)nc(-c3cccc(N4CCN(C(C)(C)C)CC4)c3)c2O)cc1Cl [Example 1008, N-(4-(2-(3-(4-(tert-butyl)piperazin-1-yl)phenyl)-3-hydroxy-6-methylpyridin-4-yl)-2-chlorophenyl)-2,2,2-trideuteroacetamide]
1 to 10 nM | 0.3 to 30 nM | Cc1cc(-c2ccc(-n3ccn(C)c3=O)c(Cl)c2)c(O)c(-c2cc(N3CCN(C(C)(C)C)CC3)n(C)c(=O)c2)n1 [Example 1009, 6′-(4-(tert-butyl)piperazin-1-yl)-4-(3-chloro-4-(3-methyl-2-oxo-2,3-dihydro-1H-imidazol-1-yl)phenyl)-3-hydroxy-1′,6-dimethyl-[2,4′-bipyridin]-2′(1′H)-one]
0.01 to 1 nM | 0.3 to 30 nM | Cc1cc(-c2ccc(-n3ccn(C)c3=O)c(Cl)c2)c(O)c(-c2cc(Cl)c(F)c(N3CCN(C(C)(C)C)CC3)c2)n1 [Example 1010, 1-(4-(2-(3-(4-(tert-butyl)piperazin-1-yl)-5-chloro-4-fluorophenyl)-3-hydroxy-6-methylpyridin-4-yl)-2-chlorophenyl)-3-methyl-1H-imidazol-2(3H)-one]
10 to 100 nM | 0.3 to 30 nM | Cc1cc(-c2ccc(-n3ccn(C)c3=O)c(Cl)c2)c(O)c(-c2cc(N3CCN(C(C)(C)C)CC3)c(=O)n(C)c2)n1 [Example 1011, 5′-(4-(tert-butyl)piperazin-1-yl)-4-(3-chloro-4-(3-methyl-2-oxo-2,3-dihydro-1H-imidazol-1-yl)phenyl)-3-hydroxy-1′,6-dimethyl-[2,3′-bipyridin]-6′(1′H)-one]
1 to 10 nM | 0.3 to 30 nM | Cc1cc(-c2ccc(-n3ccn(C)c3=O)c(C)c2)c(O)c(-c2cccc(N3CCN(C(C)(C)C)CC3)c2)n1 [Example 1012, 1-(4-(2-(3-(4-(tert-butyl)piperazin-1-yl)phenyl)-3-hydroxy-6-methylpyridin-4-yl)-2-methylphenyl)-3-methyl-1H-imidazol-2(3H)-one]
1 to 10 nM | 0.3 to 30 nM | Cc1cc(-c2ccc(-n3ccn(C)c3=O)c(Cl)c2)c(O)c(-c2ccc(Cl)c(N3CCN(C(C)(C)C)CC3)c2)n1 [Example 1013, 1-(4-(2-(3-(4-(tert-butyl)piperazin-1-yl)-4-chlorophenyl)-3-hydroxy-6-methylpyridin-4-yl)-2-chlorophenyl)-3-methyl-1H-imidazol-2(3H)-one]
0.01 to 1 nM | 0.3 to 30 nM | Cc1cc(-c2ccc(-n3ccn(C)c3=O)c(Cl)c2)c(O)c(-c2cc(F)cc(N3CCN(C(C)(C)C)CC3)c2)n1 [Example 1014, 1-(4-(2-(3-(4-(tert-butyl)piperazin-1-yl)-5-fluorophenyl)-3-hydroxy-6-methylpyridin-4-yl)-2-chlorophenyl)-3-methyl-1H-imidazol-2(3H)-one]
1 to 10 nM | 0.3 to 30 nM | COc1ncc(-c2nc(C)cc(-c3ccc(-n4ccn(C)c4=O)c(C)c3)c2O)cc1N1CCN(C(C)(C)C)CC1 [Example 1015, 1-(4-(5′-(4-(tert-butyl)piperazin-1-yl)-3-hydroxy-6′-methoxy-6-methyl-[2,3′-bipyridin]-4-yl)-2-methylphenyl)-3-methyl-1H-imidazol-2(3H)-one]
0.01 to 1 nM | 0.3 to 30 nM | Cc1cc(-c2cccc(N3CCN(C(C)(C)C)CC3)c2)c(O)c(-c2ccc(-n3ccn(C)c3=O)c(Cl)c2)c1 [Example 1016, 1-(3″-(4-(tert-butyl)piperazin-1-yl)-3-chloro-2′-hydroxy-5′-methyl-[1,1′:3′,1″-terphenyl]-4-yl)-3-methyl-1H-imidazol-2(3H)-one]
1 to 10 nM | 30 to 300 nM | Cc1cc(-c2ccc(-n3ccn(C)c3=O)c(Cl)c2)c(O)c(-c2cnnc(N3CCN(C(C)(C)C)CC3)c2)n1 [Example 1017, 1-(4-(2-(6-(4-(tert-butyl)piperazin-1-yl)pyridazin-4-yl)-3-hydroxy-6-methylpyridin-4-yl)-2-chlorophenyl)-3-methyl-1H-imidazol-2(3H)-one]
10 to 100 nM | 30 to 300 nM | Cn1cc(-c2ccc(-n3ccn(C)c3=O)c(Cl)c2)c(O)c(-c2cccc(N3CCN(C(C)(C)C)CC3)c2)c1=O [Example 1018, 3-(3-(4-(tert-butyl)piperazin-1-yl)phenyl)-5-(3-chloro-4-(3-methyl-2-oxo-2,3-dihydro-1H-imidazol-1-yl)phenyl)-4-hydroxy-1-methylpyridin-2(1H)-one]
1 to 10 nM | 0.3 to 30 nM | Cc1cc(-c2ccc(-n3ccn(C)c3=O)c(C)c2)c(O)c(-c2cnc(C)c(N3CCN(C(C)(C)C)CC3)c2)n1 [Example 1019, 1-(4-(5′-(4-(tert-Butyl)piperazin-1-yl)-3-hydroxy-6,6′-dimethyl-[2,3′-bipyridin]-4-yl)-2-methylphenyl)-3-methyl-1,3-dihydro-2H-imidazol-2-one]
> 100 nM | 300 to 3000 nM | Cn1ccn(-c2ccc(-c3cnnc(-c4cccc(N5CCN(C(C)(C)C)CC5)c4)c3O)cc2Cl)c1=O [Example 1020, 1-(4-(6-(3-(4-(tert-Butyl)piperazin-1-yl)phenyl)-5-hydroxypyridazin-4-yl)-2-chlorophenyl)-3-methyl-1H-imidazol-2(3H)-one]
0.01 to 1 nM | 0.3 to 30 nM | Cn1ccn(-c2ccc(-c3cccc(-c4cccc(N5CCN(C(C)(C)C)CC5)c4)c3O)cc2Cl)c1=O [Example 1021, 1-(3″-(4-(tert-butyl)piperazin-1-yl)-3-chloro-2′-hydroxy-[1,1′:3′,1″-terphenyl]-4-yl)-3-methyl-1H-imidazol-2(3H)-one]
0.01 to 1 nM | 0.3 to 30 nM | COc1ncc(-c2nc(C)cc(-c3ccc(-n4ccn(C)c4=O)c(Cl)c3)c2O)cc1N1CC[C@]2(CCN2C(C)C)C1 [Example 1022, (R)-1-(2-chloro-4-(3-hydroxy-5′-(1-isopropyl-1,6-diazaspiro[3.4]octan-6-yl)-6'-methoxy-6-methyl-[2,3′-bipyridin]-4-yl)phenyl)-3-methyl-1,3-dihydro-2H-imidazol-2-one]
0.01 to 1 nM | 0.3 to 30 nM | COc1ncc(-c2nc(C)cc(-c3ccc(-n4ccn(C)c4=O)c(Cl)c3)c2O)cc1N1CC[C@@]2(CCN2C(C)C)C1 [Example 1023, (S)-1-(2-chloro-4-(3-hydroxy-5′-(1-isopropyl-1,6-diazaspiro[3.4]octan-6-yl)-6'-methoxy-6-methyl-[2,3′-bipyridin]-4-yl)phenyl)-3-methyl-1,3-dihydro-2H-imidazol-2-one]
